From patent publication US9107914B2, “Beta-carbolines for use in the treatment of hearing loss and vertigo” (AudioCure Pharma GmbH, priority 2009, dated 2015) come the findings set out here.

Entries after “also recorded” stand apart in the source; their conditions may differ.

Data set [1] has as its system human SH-SY5Y neuroblastoma cells. The data set is described as follows: Differentiation model / neurite length in human neuroblastoma cells. As to differentiation / neurite length in comparison to 9-methyl-β-carboline: key: +: marginally better than 9-methyl-β-carboline; ±: equal to 9-methyl-β-carboline; −: marginally worse than 9-methyl-β-carboline. The data set is classed as cell-based. Particulars: 14 days; for neurite length: vs control group, P<0.001; for differentiation / neurite length in comparison to 9-methyl-β-carboline: SH-SY5Y cells. The text has this: Human neuroblastoma cells were utilised for this model. These are permanent cells, which are present as an indifferent type in culture. They can be activated to differentiate, i.e. transformation into neuronal cells, by addition of specific substances such as retinoic acid, […] (BDNF) or activator of the enzyme, protein kinase C to the culture medium. We used this cell system to analyse whether beta-carbolines can transform the indifferent cells into the neuronal type. Criteria were: less proliferation (less cells per field of view); smaller cell bodies (transformation from the indifferent type to the neuronal type); cytodendrites (neuritis), which provide connections to neighbouring cells or clusters of neighbouring cells.
Human SH-SY5Y neuroblastoma cells were incubated in culture for 14 days with solvent (Ko) or test substance. A shift of the graph to the right side for a test substance, pointed to an increase of neurite length, when compared to the graph for the control substance. Statistical differences between the treated groups were calculated with the Tukey's Multiple Comparison-Test.
Shown are the cumulative frequency distributions of neurite lengths, determined in at least 20 randomly selected visual fields (each 640.000 μm^2) in three independent experiments. A steep rise pointed to a predominance of short neuritis, wherein for example in control cells, a less steep rise signified a greater number of longer neurites. The horizontal maximum indicated the maximal neurite length of the respective treatment group. […] The effects are dose- and substance-dependent: 1-methyl-β-carboline <6-methoxy-9-methyl-β-carboline <9-methyl-β-carboline <9-fluorethyl-β-carboline).
The effects of the other inventive β-carbolines (compounds A-L and VI-XX) on neurite length were determined, as described above, in human SH-SY5Y neuroblastoma cells after 14 days.

For data set [2], the system named is BDNF (brain-derived neurotrophic factor) in human SH-SY5Y cells. The data set can be described thus: Relative gene expression of BDNF (FIG. 4A). The data set is classed as cell-based. The protocol: (§1) Next, it was investigated, whether the substances could induce the formation of nerve growth factors in human SH-SY5Y neuroblastoma cell. After 2 and 14 days the cells were harvested and the expression of the target gene and the house keeping gene was determined via reverse transcriptase-PCR.

Data set [3] has as its system transcription factor CREB in SH-SY5Y cells. The data set can be described thus: Dual luciferase method for intracellular cascades (FIG. 5). As to conditions: dose-dependent activating effect, 48 h incubation, three independent experiments. The format is cell-based, human. The text has this:
The effects of β-carbolines on several intracellular cascades were investigated. Of them it is known, that at their respective ends, several transcription factors are formed in the cell nucleus, that in turn activate the transcription of a group of further genes. The dual luciferase method was used. One luciferase served as transfection control, whereas the second is coupled to the appropriate specific binding sequence of the DNA.

Data set [4] deals with inner ear of guinea pigs. The data set can be described thus: Prophylaxis of hearing damages in an animal model, gentamicin and etacrynic acid (Example 30). The data set is classed as in vivo. As to conditions: infusion to the round window recess, gentamicin and etacrynic acid i.v. The protocol:
A solution containing β-carboline was infused continuously into the recess in front of the membrane of the round window of guinea pigs by a osmotic mini-pump for three days. The following β-carbolines were tested individually in this experiment: 9-methyl-β-carboline, compounds XI, XII, XVIII, XIX as well as C to L.
Then, a standard dose of gentamicin and etacrynic acid was injected intravenously into guinea pigs. Gentamicin and etacrynic acid damage the inner ear. Typically, they are used as toxins to induce deafness in such studies. The infusion was continued for further two days. Then, the electrophysiological activity of the nerve cells of the brain stem, which transmit the impulses of the inner ear, was deduced after acoustic irradiation of the ear with […]. The non-β-carboline-treated ear served as intraindividual control (Prieskorn D M, Miller J M. Technical report: chronic and acute intracochlear infusion in rodents. Hear Res, 2000; 140(1-2): 212-215). Moreover, animals were infused with 9-Me-BC only but not with gentamicin as a further control.
The measured electrophysiological activity of the nerve cells of the acoustic nerve (hearing threshold) served as a measure of the degree of therapeutic effect of the used β-carbolines on the inner ear. As can be learned from Table 3, the used β-carbolines show the increase in electrophysiological activity of the nerve cells of the acoustic nerve. It can be concluded from this that β-carbolines are useful for the treatment of hearing damages, vertigo, and vestibular disorders.

The subject of data set [5] is organ of Corti of the cochlea of rats. The data set can be described thus: Real-time RT-PCR of organ cultures of the organ of Corti (Example 14). The format is cell-based. Particulars: 90 μM, 48 hours, rat organ of Corti culture, vs solvent (100%). Here is the method: Initially, organ cultures of the organ of Corti of the cochlea of rats were prepared, which were brought into contact with 9-methyl-β-carboline in a next step. Expression of different neurotrophins was measured as a marker of the effects of 9-methyl-β-carboline on the organs or Corti. For this, RNA was isolated from Corti's tissue, transcribed into cDNA, and the concentrations of the cDNAs of the neurotrophins were determined with help of the real-time RT-PCR method.
Organs of Corti of the cochlea of 40 rats were prepared in several sessions on day 4 post partum. […] Amount and quality of the RNA were determined photometrical. […] Real-time reverse transcriptase polymerase chain reaction (real-time RT-PCR) was performed with the LightCycler System of Roche Applied Science, Mannheim, using the fluorescence resonance energy transfer (FRET) method. […] The gen for hydroxymethylbilane synthase (HMBS) was selected as a so-called housekeeping gene for relative quantification. […] The measured fluorescence of each cycle was analysed by the LightCycler Software. […] Quantification was conducted by the 2^−ΔΔC(t) method of Livak and Schmittgen (Livak K J and Schmittgen T D. Analysis of relative gene expression data using real-time quantitative PCR and the 2(-Delta Delta C(T)) Methods 2001; 25:402-8).

For data set [6], the system named is NPY (Neuropeptide Y) in human SH-SY5Y cells. The data set is described as follows: Relative gene expression of NPY (FIG. 4E). The data set is classed as cell-based. Particulars: after 14 days of exposure. The protocol:
as §1

Details of data set [7]: species or system guinea pigs. Particulars: guinea pig, in vivo. Here is the method: Thus, infusion took place into the middle ear and, therefore, outside the cochlea of the inner ear, whereby the tympanic membrane was not damaged. After three hours, 5 μL of perilymph were obtained from the apex, the tip of the cochlea, i.e. the part of the cochlea distanced most from the membrane of the round window, by a previously implanted cannula. The sample was diluted and was separated immediately by high-pressure liquid chromatography (HPLC) without further processing; and the natural fluorescence of β-carboline was determined by a fluorescence detector. The experiment was repeated with a second guinea pig and identical conditions but the sample was obtained after a 10-hour infusion. […] In a second series, 20 μg of 9-Me-BC were applied into the perilymph straight through the membrane of the round window, i.e. intra-cochlear. After three hours and after 20 hours in case of another animal, perilymph was obtained and analysed as described above. Results are depicted in FIG. 6 together with a calibration series. […] A single maximum, which represents 9-Me-BC, can be seen after 7 minutes in the upper chromatogram of FIG. 6. Clearly, no further maximum is to be seen; thus, 9-Me-BC is not degraded.

Data set [8] concerns cerebellin-1 precursor protein (CBLN) in human SH-SY5Y cells. The data set is described as follows: Relative gene expression of CBLN (FIG. 4B). The data set is classed as cell-based. Here is the method: as §1

Turning to `COc1ccc2c(c1)c1ccncc1n2C` [9-Me-6-MeO—BC (XVIII), 6-methoxy-9-methyl-9H-β-carboline], the neurite length entry in data set [1] (50 μM) is on record as “increase in neurite length”. The “differentiation / neurite length in comparison to 9-methyl-β-carboline” value in data set [1] is recorded as “+”. The BDNF transcription entry in data set [2] (SH-SY5Y cells) was “enormous, dose-dependent increase”. In addition, the “formation of the transcription factor CREB relative to the level in control cells” value in data set [3] is on record as “up to ten times”. Moreover, the “effect on the inner ear (electrophysiological activity, hearing threshold) in comparison to 9-methyl-β-carboline” value in data set [4] is recorded as “±”.

For `Cn1c2ccccc2c2ccncc21` [9-methyl-β-carboline], the “generation of neurotrophins Armetl 1, BDNF, Cbln 1, NGF and NPY (transcription)” value in data set [5] was “activated”. Further, the “dopaminergic proteins (dopamine receptor subtype 1, tyrosine hydroxylase) transcription” value in data set [5] (listed as 9-Me-BC) is reported as “activates specifically characteristic proteins of dopaminergic nerve cells; also recorded: increasingly activated”. Also, the neurite length entry in data set [1] (70, 90 or 110 μM) is “increase in neurite length”. In data set [2] (after two days), the “concentration(s) that stimulated BDNF transcription” value came out at 110 µM. In addition, the “NPY gene expression, concentration dependence” value in data set [6] is “lower concentrations were more effective than the higher concentrations”. Further, the “formation of the transcription factor CREB relative to the level in control cells” value in data set [3] is given as “up to ten times”. In data set [7], the “degradation in perilymph (further chromatographic maxima)” value is on record as “not degraded” and the “penetration of the membrane of the round window into the perilymph” value is recorded as “penetrates the membrane of the round window”.

For the molecule `FCCn1c2ccccc2c2ccncc21` [fluorethyl-BC (XIX), 9-(2-fluoroethyl)-9H-β-carboline], the neurite length entry in data set [1] (30, 50 or 70 μM) is recorded as “increase in neurite length”. For the same molecule, the “differentiation / neurite length in comparison to 9-methyl-β-carboline” value in data set [1] is reported as “+”. Further, the CBLN gene expression result is “roughly the same stimulation at all investigated concentrations” in data set [8] (after 14 days of exposure) and “increased” in data set [8] (after two days exposure). The “NPY gene expression, concentration dependence” value in data set [6] is on record as “lower concentrations were more effective than the higher concentrations”. The “formation of the transcription factor CREB relative to the level in control cells” value in data set [3] was “up to ten times”. The “effect on the inner ear (electrophysiological activity, hearing threshold) in comparison to 9-methyl-β-carboline” value in data set [4] is given as “+”.
